{"source": "the SangsterLogP compilation", "data": [{"assay": "method code SF-CR, from PMID: 582926", "values": [{"compound": "CO[C@H]1[C@H](O)[C@H](O[C@H]2CC[C@@]3(C=O)[C@H](CC[C@@H]4[C@@H]3CC[C@]3(C)[C@@H](C5=CC(=O)OC5)CC[C@]43O)C2)O[C@@H](C)[C@@H]1O", "logP": 1.05}, {"compound": "C[C@@H]1O[C@@H](O[C@H]2CC[C@@]3(C)[C@H](CC[C@@H]4[C@@H]3CC[C@]3(C)[C@@H](C5=CC(=O)OC5)CC[C@]43O)C2)[C@H](O)[C@H](O)[C@H]1O", "logP": 2.1}, {"compound": "COC1CC(OC2CC[C@@]3(C)[C@H](CC[C@@H]4[C@H]3CC[C@]3(C)C(C5=CC(=O)OC5)C(OC(C)=O)C[C@]43O)C2)OC(C)C1O", "note": "(stereo not given in full)", "logP": 2.26}, {"compound": "CC(=O)O[C@H]1C[C@H](O[C@H]2CC[C@@]3(C)[C@H](CC[C@@H]4[C@@H]3C[C@@H](O)[C@]3(C)[C@@H](C5=CC(=O)OC5)CC[C@]43O)C2)O[C@H](C)[C@H]1O[C@H]1C[C@H](OC(C)=O)[C@H](O[C@H]2C[C@H](O)[C@H](O)[C@@H](C)O2)[C@@H](C)O1", "logP": 2.45}, {"compound": "CO[C@H]1[C@H](O)[C@H](O[C@H]2CC[C@@]3(C)[C@H](CC[C@@H]4[C@@H]3CC[C@]3(C)[C@@H](C5=CC(=O)OC5)CC[C@]43O)C2)O[C@@H](C)[C@@H]1O", "logP": 2.1}, {"compound": "CC(=O)O[C@H]1C[C@]2(O)[C@@H]3CC[C@@H]4C[C@@H](O[C@H]5C[C@H](O)[C@H](O[C@H]6C[C@H](O)[C@H](O[C@H]7C[C@H](O)[C@H](O)[C@@H](C)O7)[C@@H](C)O6)[C@@H](C)O5)CC[C@]4(C)[C@H]3CC[C@]2(C)[C@H]1C1=CC(=O)OC1", "logP": 2.15}, {"compound": "CC12CCC(OC3OC(CO)C(O)C(O)C3O)CC1CCC1C2CCC2(C)C(C3=CC(=O)OC3)CCC12O", "note": "(stereo not given)", "logP": -0.64}, {"compound": "C[C@@H]1O[C@@H](O[C@H]2CC[C@]3(C=O)[C@H]4CC[C@]5(C)[C@@H](C6=CC(=O)OC6)CC[C@]5(O)[C@@H]4CC[C@]3(O)C2)[C@H](O)[C@H](O)[C@H]1O", "logP": -0.48}, {"compound": "C[C@H]1O[C@@H](O[C@H]2CC[C@]3(C=O)[C@H]4CC[C@]5(C)[C@@H](C6=CC(=O)OC6)CC[C@]5(O)[C@@H]4CC[C@]3(O)C2)C[C@H](O)[C@@H]1O", "logP": 0.3}, {"compound": "CO[C@H]1C[C@H](O[C@H]2CCC3(CO)C4CCC5(C)[C@@H](C6=CC(=O)OC6)CCC5(O)C4CCC3(O)C2)O[C@H](C)[C@H]1O", "note": "(stereo not given in full)", "logP": 0.56}, {"compound": "CC1OC(OC2CCC3(CO)C4CCC5(C)C6(C=CC(=O)OC6)CCC5(O)C4CCC3(O)C2)CC(O)C1O", "note": "(stereo not given)", "logP": 0.15}, {"compound": "CC(=O)O[C@H]1[C@@H](OC(C)=O)C[C@H](O[C@H]2[C@@H](OC(C)=O)C[C@H](O[C@H]3[C@@H](OC(C)=O)C[C@H](O[C@H]4CC[C@@]5(C)[C@H](CC[C@@H]6[C@@H]5CC[C@]5(C)[C@@H](C7=CC(=O)OC7)[C@@H](OC(C)=O)C[C@]65O)C4)O[C@@H]3C)O[C@@H]2C)O[C@@H]1C", "logP": 2.85}, {"compound": "CC(=O)OC1CC(OC2CCC3(C)C(CCC4C3CC(O)C3(C)C(C5=CC(=O)OC5)CCC43O)C2)OC(C)C1OC1CC(O)C(OC2CC(O)C(O)C(C)O2)C(C)O1", "note": "(stereo not given)", "logP": 1.71}, {"compound": "C[C@H]1O[C@@H](O[C@H]2[C@@H](O)C[C@H](O[C@H]3[C@@H](O)C[C@H](O[C@H]4CC[C@@]5(C)[C@H](CC[C@@H]6[C@@H]5CC[C@]5(C)[C@@H](C7=CC(=O)OC7)[C@@H](O)C[C@]65O)C4)O[C@@H]3C)O[C@@H]2C)C[C@H](O)[C@@H]1O", "logP": 1.66}]}, {"assay": "method code SF-RC, from PMID: 582926", "values": [{"compound": "CC1OC(OC2CCC3(C)C(CCC4C3CCC3(C)C(C5=CC(=O)OC5)C(O)CC43O)C2)CC(O)C1O", "note": "(stereo not given)", "logP": 1.76}, {"compound": "C[C@H]1O[C@@H](O[C@H]2CC[C@@]3(C)[C@H](CC[C@@H]4[C@@H]3CC[C@]3(C)[C@@H](C5=CC(=O)OC5)CC[C@]43O)C2)C[C@H](O)[C@@H]1O[C@H]1C[C@H](O)[C@H](O[C@H]2C[C@H](O)[C@H](O[C@@H]3O[C@H](C(=O)O)[C@@H](O)[C@H](O)[C@H]3O)[C@@H](C)O2)[C@@H](C)O1", "logP": -1.1}, {"compound": "CC(=O)OC1C[C@@H](OC2C(O)C[C@@H](OC3C(O)C[C@@H](OC4CC[C@@]5(C)[C@H](CC[C@H]6[C@H]5CC(O)[C@]5(C)C(C7=CC(=O)OC7)CC[C@]65O)C4)OC3C)OC2C)OC(C)C1O[C@H]1OC(CO)C(O)C(O)C1O", "note": "(stereo not given in full)", "logP": 0.07}, {"compound": "CC(=O)OC1CC2(O)C3CCC4CC(O)CCC4(C)C3CCC2(C)C1C1=CC(=O)OC1", "note": "(stereo not given)", "logP": 1.93}, {"compound": "CO[C@H]1CC(O[C@H]2CC[C@@]3(C)[C@H](CC[C@@H]4[C@@H]3CC[C@]3(C)[C@@H](C5=CC(=O)OC5)[C@@H](OC(C)=O)C[C@]43O)C2)O[C@H](C)C1=O", "note": "(stereo not given in full)", "logP": 1.65}, {"compound": "C[C@]12CC[C@H](O)C[C@H]1CC[C@H]1C3=CC[C@H](C4=CC(=O)OC4)[C@@]3(C)CC[C@@H]12", "logP": 2.52}, {"compound": "CC(=O)OC1CC(OC2C(O)CC(OC3C(O)CC(OC4CCC5(C)C(CCC6C5CC(O)C5(C)C(C7=CC(=O)OC7)CCC65O)C4)OC3C)OC2C)OC(C)C1O", "note": "(stereo not given)", "logP": 1.97}, {"compound": "CO[C@H]1[C@@H](O)C[C@H](O[C@H]2[C@@H](O)C[C@H](O[C@H]3[C@@H](O)C[C@H](O[C@H]4CC[C@@]5(C)[C@H](CC[C@@H]6[C@@H]5C[C@@H](O)[C@]5(C)[C@@H](C7=CC(=O)OC7)CC[C@]65O)C4)O[C@@H]3C)O[C@@H]2C)O[C@@H]1C", "logP": 1.73}, {"compound": "CC1OC(OC2CCC3(C)C(CCC4C3CC(O)C3(C)C(C5=CC(=O)OC5)CCC43O)C2)CC(O)C1OC1CC(O)C(OC2CC(O)C(OC3OC(C(=O)O)C(O)C(O)C3O)C(C)O2)C(C)O1", "note": "(stereo not given)", "logP": -1.77}, {"compound": "CC1OC(OC2CCC3(C)C(CCC4C3CCC3(C)C(C5=CC(=O)OC5)CCC43O)C2)CC(O)C1O", "note": "(stereo not given)", "logP": 2.48}, {"compound": "CO[C@H]1CC(O[C@H]2CC[C@@]3(C)[C@H](CC[C@@H]4[C@@H]3CC[C@]3(C)[C@@H](C5=CC(=O)OC5)[C@@H](OC(C)=O)C[C@]43O)C2)O[C@@H](C)[C@@H]1OC(C)=O", "note": "(stereo not given in full)", "logP": 2.95}, {"compound": "CC(=O)O[C@H]1C[C@H](O[C@H]2[C@@H](O)C[C@H](O[C@H]3[C@@H](O)C[C@H](O[C@H]4CC[C@@]5(C)[C@@H](CC[C@@H]6[C@H]5CC[C@]5(C)[C@@H](C7=CC(=O)OC7)CC[C@]65O)C4)O[C@@H]3C)O[C@@H]2C)O[C@H](C)[C@H]1O[C@@H]1O[C@H](CO)[C@@H](O)[C@H](O)[C@H]1O", "logP": 1.23}, {"compound": "CO[C@H]1C[C@H](O[C@H]2CC[C@@]3(C)[C@H](CC[C@@H]4[C@@H]3CC[C@]3(C)[C@@H](C5=CC(=O)OC5)CC[C@]43O)C2)O[C@@H](C)[C@@H]1O", "logP": 2.37}, {"compound": "C[C@H]1O[C@@H](O[C@H]2[C@@H](O)C[C@H](O[C@H]3CC[C@@]4(C)[C@@H](CC[C@@H]5[C@@H]4CC[C@]4(C)[C@@H](C6=CC(=O)OC6)CC[C@]54O)C3)O[C@@H]2C)C[C@H](O)[C@@H]1O", "logP": 2.15}, {"compound": "CC1O[C@H](O[C@H]2CC[C@]3(CO)C4CC[C@]5(C)[C@@H](C6=CC(=O)OC6)CC[C@]5(O)C4CC[C@]3(O)C2)C(O)C(O)[C@@H]1O", "note": "(stereo not given in full)", "logP": -0.62}]}, {"assay": "method code SF-AS, from PMID: 582926", "values": [{"compound": "C[C@@H]1O[C@@H](O[C@@H]2C=C3CC[C@@H]4[C@H](CC[C@]5(C)[C@@H](c6ccc(=O)oc6)CC[C@]45O)[C@@]3(C)CC2)[C@H](O)[C@H](O)[C@H]1O", "logP": 2.48}]}]}
